Reference: the NIST ThermoML archive (doi:10.1021/je0301040)

Experiment: xn = mol fraction of the nth substance listed

FC(Cl)(Cl)Cl [trichlorofluoromethane] + FC(F)Cl
Settings | mass density [kg/m3]
230 K, 25860 kPa, Liquid, Pycnometric method, x1 = 0.8336 | 1641.63
230.01 K, 668.5 kPa, Liquid, Pycnometric method, x1 = 0.8336 | 1604.47
230.01 K, 1004 kPa, Liquid, Pycnometric method, x1 = 0.8336 | 1605.02
230.01 K, 2033.3 kPa, Liquid, Pycnometric method, x1 = 0.8336 | 1606.97
230.01 K, 2374.4 kPa, Liquid, Pycnometric method, x1 = 0.8336 | 1607.47
230.01 K, 2689.9 kPa, Liquid, Pycnometric method, x1 = 0.8336 | 1608.01
230.01 K, 3067 kPa, Liquid, Pycnometric method, x1 = 0.8336 | 1608.63
230.01 K, 3637.3 kPa, Liquid, Pycnometric method, x1 = 0.8336 | 1609.58
230.01 K, 12707 kPa, Liquid, Pycnometric method, x1 = 0.8336 | 1623.4
230.01 K, 65252 kPa, Liquid, Pycnometric method, x1 = 0.8336 | 1686.03
230.02 K, 1691.3 kPa, Liquid, Pycnometric method, x1 = 0.8336 | 1606.39
230.02 K, 38513 kPa, Liquid, Pycnometric method, x1 = 0.8336 | 1657.76
230.02 K, 51629 kPa, Liquid, Pycnometric method, x1 = 0.8336 | 1672.95
232.01 K, 344.5 kPa, Liquid, isochoric method, x1 = 0.832 | 1585.93
232.01 K, 367.9 kPa, Liquid, isochoric method, x1 = 0.832 | 1585.93
233.01 K, 1630.1 kPa, Liquid, isochoric method, x1 = 0.832 | 1585.8
234.01 K, 2889.9 kPa, Liquid, isochoric method, x1 = 0.832 | 1585.67
245.01 K, 363.7 kPa, Liquid, isochoric method, x1 = 0.832 | 1556.16
246.5 K, 2106.6 kPa, Liquid, isochoric method, x1 = 0.832 | 1555.98
248 K, 3843.5 kPa, Liquid, isochoric method, x1 = 0.832 | 1555.8
248 K, 3865.5 kPa, Liquid, isochoric method, x1 = 0.832 | 1555.8
248.01 K, 3870.3 kPa, Liquid, isochoric method, x1 = 0.832 | 1555.8
249 K, 4990.8 kPa, Liquid, isochoric method, x1 = 0.832 | 1555.68
264.5 K, 1262.1 kPa, Liquid, isochoric method, x1 = 0.832 | 1513.38
266.5 K, 3302.5 kPa, Liquid, isochoric method, x1 = 0.832 | 1513.15
268 K, 4830.1 kPa, Liquid, isochoric method, x1 = 0.832 | 1512.98
268 K, 4846.4 kPa, Liquid, isochoric method, x1 = 0.832 | 1512.98
269.99 K, 2096.8 kPa, Liquid, Pycnometric method, x1 = 0.8336 | 1502.82
269.99 K, 21561 kPa, Liquid, Pycnometric method, x1 = 0.8336 | 1541.21
269.99 K, 41933 kPa, Liquid, Pycnometric method, x1 = 0.8336 | 1573.88
270 K, 378 kPa, Liquid, Pycnometric method, x1 = 0.8336 | 1498.95
270 K, 696 kPa, Liquid, Pycnometric method, x1 = 0.8336 | 1499.67
270 K, 1081 kPa, Liquid, Pycnometric method, x1 = 0.8336 | 1500.54
270 K, 1383.8 kPa, Liquid, Pycnometric method, x1 = 0.8336 | 1501.23
270 K, 1742 kPa, Liquid, Pycnometric method, x1 = 0.8336 | 1502.02
270 K, 2410 kPa, Liquid, Pycnometric method, x1 = 0.8336 | 1503.54
270 K, 2708.1 kPa, Liquid, Pycnometric method, x1 = 0.8336 | 1504.16
270 K, 3130 kPa, Liquid, Pycnometric method, x1 = 0.8336 | 1505.05
270 K, 3854.5 kPa, Liquid, Pycnometric method, x1 = 0.8336 | 1506.62
270 K, 7625.3 kPa, Liquid, Pycnometric method, x1 = 0.8336 | 1514.59
270 K, 14726 kPa, Liquid, Pycnometric method, x1 = 0.8336 | 1528.68
270 K, 27467 kPa, Liquid, Pycnometric method, x1 = 0.8336 | 1551.32
270 K, 35271 kPa, Liquid, Pycnometric method, x1 = 0.8336 | 1563.81
270 K, 48894 kPa, Liquid, Pycnometric method, x1 = 0.8336 | 1583.8
270 K, 55535 kPa, Liquid, Pycnometric method, x1 = 0.8336 | 1592.86
270 K, 62211 kPa, Liquid, Pycnometric method, x1 = 0.8336 | 1601.52
288 K, 932.5 kPa, Liquid, isochoric method, x1 = 0.832 | 1464.29
290 K, 2670 kPa, Liquid, isochoric method, x1 = 0.832 | 1464.09
293 K, 5258.3 kPa, Liquid, isochoric method, x1 = 0.832 | 1463.78
293 K, 5259.5 kPa, Liquid, isochoric method, x1 = 0.832 | 1463.78
298.14 K, 1069.1 kPa, Liquid, Pycnometric method, x1 = 0.8336 | 1439.09
298.14 K, 1772.4 kPa, Liquid, Pycnometric method, x1 = 0.8336 | 1441.18
298.14 K, 2113.1 kPa, Liquid, Pycnometric method, x1 = 0.8336 | 1442.22
298.14 K, 2728.2 kPa, Liquid, Pycnometric method, x1 = 0.8336 | 1444.75
298.14 K, 3032.4 kPa, Liquid, Pycnometric method, x1 = 0.8336 | 1445.59
298.14 K, 21180 kPa, Liquid, Pycnometric method, x1 = 0.8336 | 1490.62
298.14 K, 49069 kPa, Liquid, Pycnometric method, x1 = 0.8336 | 1542.62
298.14 K, 63135 kPa, Liquid, Pycnometric method, x1 = 0.8336 | 1564.13
298.15 K, 390.2 kPa, Liquid, Pycnometric method, x1 = 0.8336 | 1436.97
298.15 K, 717.7 kPa, Liquid, Pycnometric method, x1 = 0.8336 | 1438.05
298.15 K, 1383.5 kPa, Liquid, Pycnometric method, x1 = 0.8336 | 1440.04
298.15 K, 2381.3 kPa, Liquid, Pycnometric method, x1 = 0.8336 | 1443.01
298.15 K, 2409.4 kPa, Liquid, Pycnometric method, x1 = 0.8336 | 1443.8
298.15 K, 3541.1 kPa, Liquid, Pycnometric method, x1 = 0.8336 | 1447.03
298.15 K, 7060.4 kPa, Liquid, Pycnometric method, x1 = 0.8336 | 1456.68
298.15 K, 14256 kPa, Liquid, Pycnometric method, x1 = 0.8336 | 1474.84
298.15 K, 27634 kPa, Liquid, Pycnometric method, x1 = 0.8336 | 1504
298.15 K, 35295 kPa, Liquid, Pycnometric method, x1 = 0.8336 | 1518.86
298.15 K, 42224 kPa, Liquid, Pycnometric method, x1 = 0.8336 | 1531.13
298.15 K, 56475 kPa, Liquid, Pycnometric method, x1 = 0.8336 | 1554.44
298.15 K, 67870 kPa, Liquid, Pycnometric method, x1 = 0.8336 | 1570.81
305.99 K, 2209.4 kPa, Liquid, isochoric method, x1 = 0.832 | 1419.96
305.99 K, 2209.7 kPa, Liquid, isochoric method, x1 = 0.832 | 1419.96
308.99 K, 4508.6 kPa, Liquid, isochoric method, x1 = 0.832 | 1419.67
311.99 K, 6798.4 kPa, Liquid, isochoric method, x1 = 0.832 | 1419.39
311.99 K, 6800.1 kPa, Liquid, isochoric method, x1 = 0.832 | 1419.39
319.98 K, 1419.4 kPa, Liquid, Pycnometric method, x1 = 0.8336 | 1381.39
319.98 K, 2419.9 kPa, Liquid, Pycnometric method, x1 = 0.8336 | 1385.12
319.99 K, 690.7 kPa, Liquid, Pycnometric method, x1 = 0.8336 | 1378.66
319.99 K, 1087.6 kPa, Liquid, Pycnometric method, x1 = 0.8336 | 1380.16
319.99 K, 1721.1 kPa, Liquid, Pycnometric method, x1 = 0.8336 | 1382.53
319.99 K, 2054.4 kPa, Liquid, Pycnometric method, x1 = 0.8336 | 1383.74
319.99 K, 2726 kPa, Liquid, Pycnometric method, x1 = 0.8336 | 1386.19
319.99 K, 3165.8 kPa, Liquid, Pycnometric method, x1 = 0.8336 | 1387.81
319.99 K, 3805.2 kPa, Liquid, Pycnometric method, x1 = 0.8336 | 1390.08
319.99 K, 7368.4 kPa, Liquid, Pycnometric method, x1 = 0.8336 | 1402.12
319.99 K, 13993 kPa, Liquid, Pycnometric method, x1 = 0.8336 | 1422.16
319.99 K, 20936 kPa, Liquid, Pycnometric method, x1 = 0.8336 | 1440.83
319.99 K, 27630 kPa, Liquid, Pycnometric method, x1 = 0.8336 | 1456.91
319.99 K, 35180 kPa, Liquid, Pycnometric method, x1 = 0.8336 | 1473.5
319.99 K, 42218 kPa, Liquid, Pycnometric method, x1 = 0.8336 | 1486.74
319.99 K, 49603 kPa, Liquid, Pycnometric method, x1 = 0.8336 | 1501.44
319.99 K, 56549 kPa, Liquid, Pycnometric method, x1 = 0.8336 | 1513.51
319.99 K, 62595 kPa, Liquid, Pycnometric method, x1 = 0.8336 | 1523.41
319.99 K, 66514 kPa, Liquid, Pycnometric method, x1 = 0.8336 | 1534.42
325.99 K, 1939.3 kPa, Liquid, isochoric method, x1 = 0.832 | 1362.85
328.99 K, 3911.9 kPa, Liquid, isochoric method, x1 = 0.832 | 1362.59
331.99 K, 5879.8 kPa, Liquid, isochoric method, x1 = 0.832 | 1362.33
331.99 K, 5890.5 kPa, Liquid, isochoric method, x1 = 0.832 | 1362.33
349.98 K, 353.7 kPa, Gas, isochoric method, x1 = 0.832 | 131.816
349.98 K, 1087.3 kPa, Liquid, Pycnometric method, x1 = 0.8336 | 1291.23
349.98 K, 1418.4 kPa, Liquid, Pycnometric method, x1 = 0.8336 | 1293.05
349.98 K, 1769.1 kPa, Liquid, Pycnometric method, x1 = 0.8336 | 1294.97
349.98 K, 2081.3 kPa, Liquid, Pycnometric method, x1 = 0.8336 | 1296.63
349.98 K, 2408.9 kPa, Liquid, Pycnometric method, x1 = 0.8336 | 1298.31
349.98 K, 2747.4 kPa, Liquid, Pycnometric method, x1 = 0.8336 | 1300.08
349.98 K, 3091.9 kPa, Liquid, Pycnometric method, x1 = 0.8336 | 1301.88
349.98 K, 7457.3 kPa, Liquid, Pycnometric method, x1 = 0.8336 | 1322.34
349.98 K, 14287 kPa, Liquid, Pycnometric method, x1 = 0.8336 | 1349.36
349.98 K, 20907 kPa, Liquid, Pycnometric method, x1 = 0.8336 | 1371.66
349.98 K, 35596 kPa, Liquid, Pycnometric method, x1 = 0.8336 | 1412.26
349.98 K, 42532 kPa, Liquid, Pycnometric method, x1 = 0.8336 | 1428.61
349.98 K, 49571 kPa, Liquid, Pycnometric method, x1 = 0.8336 | 1443.89
349.98 K, 56566 kPa, Liquid, Pycnometric method, x1 = 0.8336 | 1457.8
349.98 K, 62677 kPa, Liquid, Pycnometric method, x1 = 0.8336 | 1469.23
349.99 K, 3577.6 kPa, Liquid, Pycnometric method, x1 = 0.8336 | 1304.32
349.99 K, 27703 kPa, Liquid, Pycnometric method, x1 = 0.8336 | 1391.72
349.99 K, 68231 kPa, Liquid, Pycnometric method, x1 = 0.8336 | 1479.1
351.98 K, 3607.1 kPa, Liquid, isochoric method, x1 = 0.832 | 1298.78
354.98 K, 5239.3 kPa, Liquid, isochoric method, x1 = 0.832 | 1298.54
357.98 K, 6868 kPa, Liquid, isochoric method, x1 = 0.832 | 1298.31
357.98 K, 6868.5 kPa, Liquid, isochoric method, x1 = 0.832 | 1298.31
357.98 K, 6872.5 kPa, Liquid, isochoric method, x1 = 0.832 | 1298.31
357.98 K, 6876.5 kPa, Liquid, isochoric method, x1 = 0.832 | 1298.31
374.97 K, 140.1 kPa, Fluid (supercritical or subcritical phases), Burnett expansion method, x1 = 0.832 | 5.9076
374.97 K, 155.55 kPa, Fluid (supercritical or subcritical phases), Burnett expansion method, x1 = 0.832 | 6.5788
374.97 K, 572.06 kPa, Fluid (supercritical or subcritical phases), Burnett expansion method, x1 = 0.832 | 25.934
374.97 K, 705.75 kPa, Fluid (supercritical or subcritical phases), Burnett expansion method, x1 = 0.832 | 32.8139
374.97 K, 712.23 kPa, Fluid (supercritical or subcritical phases), Burnett expansion method, x1 = 0.832 | 33.1519
374.97 K, 775.25 kPa, Fluid (supercritical or subcritical phases), Burnett expansion method, x1 = 0.832 | 36.5414
374.97 K, 2140.4 kPa, Liquid, Pycnometric method, x1 = 0.8336 | 1209.34
374.97 K, 2454.5 kPa, Liquid, Pycnometric method, x1 = 0.8336 | 1211.8
374.97 K, 2781.1 kPa, Liquid, Pycnometric method, x1 = 0.8336 | 1214.3
